The subject of one data set is Giardia infections. Conditions: cited from earlier work; for clinical failure rates: 5-nitroimidazoles.
The subject of data set [1] is Neonatal foreskin fibroblast (NFF) cells. The experiment in a line: Mammalian cell cytotoxicity assay (sulforhodamine B). The note with it: for SI (48h Gd): Table S2, NFF vs 48 h Giardia IC50; for inhibition at 20 µM: ±SD. It is filed as cell-based, human. Put shortly:
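Cytotoxicity against neonatal foreskin fibroblasts was read by sulforhodamine B staining, with media-only, untreated, DMSO-vehicle and chloroquine controls. Dose–response started at 100 µM. Selectivity index = NFF IC50 divided by G. duodenalis BRIS/91/HEPU/1279 IC50.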

The subject of data set [2] is Escherichia coli (ATCC 25922). The experiment in a line: Anti-bacterial activity assay. In kind it is cell-based. Conditions: for inhibition at 50 µM: Escherichia coli, ATCC25922, 50 µM, read-out: Bacterial Inhibition E. coli. The method in brief:
(§1)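 Compounds tested once at 50 µM in duplicate against mid-log cultures at 5 × 10^5 CFU/mL, incubated 18 h at 37 °C without shaking. Growth read by absorbance at 600 nm; percentage inhibition calculated relative to bacteria-only wells. Vancomycin (Gram-positive) and colistin (Gram-negative) served as plate controls.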

The subject of data set [3] is G. duodenalis BRIS/91/HEPU/1279. The experiment in a line: Giardia dose response assay, assemblage B. In kind it is cell-based, Giardia duodenalis. Conditions: for IC50: Giardia duodenalis. Put shortly:
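Assemblage B trophozoites (BRIS/91/HEPU/1279, 1.5 × 10^4 parasites/well) faced 8–12-point doubling dilutions in duplicate, incubated 48 h at 37 °C under 3% O2, 5% CO2 in N2. Parasites were imaged and counted at 24 and 48 h. Growth inhibition was taken versus vehicle controls minus background, with IC50 by log-linear interpolation.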

A further data set deals with BRIS/87/HEPU/713. The experiment in a line: Giardia dose response assay, assemblage A. The note with it: Giardia duodenalis. In kind it is cell-based. On the procedure:
(§2) In these assays, compounds were serially diluted (8–12-point doubling dilutions in technical duplicate) in DMSO control media, with all test wells inoculated with parasites (1.5 × 10^4 parasites for BRIS/91/HEPU/1279 and BRIS/91/HEPU/1279m1, or 3 × 10^3 parasites for BRIS/87/HEPU/713). Albendazole (positive control) plates were run with each experiment. All plates were sealed in culture chambers and gassed with 3% O2, 5% CO2 in N2 and incubated at 37 °C for 48 h, with parasites imaged and enumerated at 24 and 48 h. Growth inhibition was calculated as a percentage relative to vehicle controls minus any background as described above and IC50 values were determined using log-linear interpolation as previously described. […] Statistical comparison of IC50 values when required were performed using Student’s t-test.

Data set [4] is described as follows: In vivo tolerability assessment. The protocol:
In brief, separate groups of three mice were administered single, increasing doses of compound via oral gavage to examine tolerability. […] After a week of observation, mice in each group were euthanized and samples collected for pathology assessment. The highest dose assessed was 50 mg/kg. To further assess the safety of SN00797640, this highest dose was also administered to a final group of three mice, daily for three days.

The subject of data set [5] is G. duodenalis BRIS/91/HEPU/1279. The experiment in a line: Primary Giardia screen at 10 µM (live-cell imaging, automated counting). In kind it is cell-based, Giardia duodenalis. The note with it: for inhibition at 10 µM: Giardia duodenalis. Put shortly: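 Compounds were tested once each at 10 μM final (0.2% DMSO) in culture medium under 3% O2, 5% CO2 in N2. Growth was read at 24 and 48 h by live-cell imaging with automated counting, and inhibition expressed as percent growth versus 0.2% DMSO vehicle after media-only background subtraction.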

In a further data set the test system is BRIS/91/HEPU/1279. The experiment in a line: Combination studies (isobolograms). It is filed as cell-based, Giardia duodenalis. The note with it: 24 h. The protocol: The activity of each combination was assessed against BRIS/91/HEPU/1279. A total of 14, 8-point dose–response assays were performed with each combination in triplicate on at least two occasions in 96-well microtiter plates (1.5x10^4 BRIS/91/HEPU/1279 trophozoites per well). Plates were incubated in chambers gassed with 3% O2, 5% CO2 in N2 at 37 °C for 24 h before parasite growth was assessed by imaging. Media and vehicle controls were included on each plate. […] Isoboles were fitted using the standard hyperbolic function defined by the parameter I as previously described, where Positive values of I indicate synergy, negative values indicate antagonism and addition occurs when I equals 0. The significance of the difference of I from zero was assessed with Student’s t test.

The test system of another data set is BRIS/91/HEPU/1279m1. The experiment in a line: Giardia dose response assay, metronidazole resistant line. It is filed as cell-based. Conditions: Giardia duodenalis. On the procedure:
as §2

In data set [6] the test system is Acinetobacter baumannii (ATCC 19606). The experiment in a line: Anti-bacterial activity assay. In kind it is cell-based. The note with it: ATCC19606, 50 µM. The method in brief: as §1
Data set [7] has as its system Klebsiella pneumoniae (ATCC 700603). The experiment in a line: Anti-bacterial activity assay. It is filed as cell-based. Conditions: ATCC700603, 50 µM, read-out: Bacterial Inhibition K. pneumoniae. The method in brief: as §1
In data set [8] the test system is methicillin resistant Staphylococcus aureus (ATCC 43300). The experiment in a line: Anti-bacterial activity assay. It is filed as cell-based. Conditions: Staphylococcus aureus, ATCC43300, 50 µM; read-out: Bacterial Inhibition S. aureus. Put shortly: as §1
Setting [9] is: 24 h, read-out: G. duodenalis IC50 24h, Table S2, 24 h, ±SD, max 10 µM.
[10] abbreviates: 24 h, first singlicate assay, read-out: % Inhibition n=1 24h.
[11] abbreviates: 24 h, re-assessment, read-out: % Inhibition n=2 24h.
The mark [12] stands for this setting: 24 h, read-out: Average % Inhibition 24h.
Where [13] appears, read: 48 h, first singlicate assay, read-out: % Inhibition n=1 48h.
The mark [14] stands for this setting: 48 h, re-assessment, read-out: % Inhibition n=2 48h.
Where [15] appears, read: 48 h, read-out: Average % Inhibition 48h.
[16] abbreviates: 48 h, Table S2, 48 h, ±SD, max 10 µM, read-out: G. duodenalis IC50 48h.

Where two headings read alike, the source gives them in different places. Bounds are passed on as bounds.

`CCCSc1ccc2nc(NC(=O)OC)[nH]c2c1` [Albendazole]: the treatment efficacy rates in the data set on Giardia infections is recorded as 25–90%.
A word on the IC50: it is the point on the concentration scale where inhibition reaches its midpoint. On to `Cc1ncc([N+](=O)[O-])n1CCO` [Metronidazole, reference compound], for which the IC50 in data set [1] (Homo sapiens, NFF, mean ± SD, read-out: IC50 NFF) is more than 75000 nM. Further, the clinical failure rates with Giardia infections was 40–70%.
As a reminder, the inhibition is the relative decrease from the control value, in per cent. Turning to `Cc1ccc(C(=O)Nc2ccc3c(c2)N(C)C(=O)c2ccccc2O3)cc1` [SN00797640], the “Bacterial Inhibition E. coli” value in data set [2] (50 µM) is given as less than 5%. Besides, the inhibition at 50 µM in data set [2] amounted to 3.64%. For the same molecule, the “fold more potent than metronidazole” value in [3] (48 h IC50) is listed as more than 10 fold. Besides, the IC50 in [3] (setting [9]) turned out to be 380 ± 50 nM; in data set [3] (48 h, BRIS/91/HEPU/1279, 48 h, mean ± SD, read-out: IC50 Giardia (48 h)) it was 180 nM; in data set [3] (48 h, BRIS/91/HEPU/1279, 48 h, read-out: 48 h IC50), 181 nM; with BRIS/87/HEPU/713 (48 h, read-out: 48 h IC50), 115 ± 30 nM; in the data set on BRIS/87/HEPU/713 (read-out: 24 h IC50, 24 h), 164 ± 11 nM; in the data set with BRIS/91/HEPU/1279m1 (24 h, read-out: 24 h IC50), 160 ± 27 nM. In addition, the IC50 with BRIS/91/HEPU/1279m1 (48 h, read-out: 48 h IC50) is 124 ± 3 nM. In addition, in [1], the “SI (48h Gd)” value is recorded as more than 55. Besides, in data set [4] (oral gavage, up to 50 mg/kg daily for three consecutive days), the tolerability result is “well tolerated with no adverse reactions detected”. Besides, the “histological analysis of liver and kidney samples” value in data set [4] (test animals of tolerability study) is “no toxicity”. For the same molecule, in data set [5] (48 h), the “Average % Inhibition 48h” value was more than 90%. The inhibition at 10 µM came out at 97.5% in [5] (setting [10]); 83.1% in [5] (setting [11]); 90.3% in data set [5] (setting [12]); 96.3% in data set [5] (setting [13]); 97.2% in [5] (setting [14]); 96.8% in [5] (setting [15]). In addition, the “interaction parameter I” value in the data set with BRIS/91/HEPU/1279 (combined with albendazole, synergistic) is given as 4.7; in the data set with BRIS/91/HEPU/1279 (combined with metronidazole, additive), −0.3.
Consider `Cc1cccc(CNS(=O)(=O)c2cc(-c3csc(C)n3)sc2C)c1` [SN00798431, Cc1cccc(CNS(=O)(=O)c2cc(sc2C)c2csc(C)n2)c1], for which the inhibition at 50 µM is 42.5% in data set [6], 13.7% in data set [7], 13.3% in [8] and -0.77% in [2]. In addition, the results for the IC50 in data set [3] (setting [9]) and in data set [3] (setting [16]) were more than 10000 nM and 5930 ± 5700 nM, respectively. In addition, the inhibition at 20 µM in data set [1] (Homo sapiens, NFF) turned out to be 19.3 ± 27%. Also, the “SI (48h Gd)” value in data set [1] is more than 3. The inhibition at 10 µM in [5] (setting [10]) was found to be 30.2%; in data set [5] (setting [11]), 12.3%; in [5] (setting [12]) it was 21.2%; in data set [5] (setting [13]), 59.2%; in data set [5] (setting [14]), 68.1%; in [5] (setting [15]), 63.6%.
For `Cc1ccc(C(=O)Nc2cc(-c3nc(C)cs3)sc2C)cc1` [SN00798457, Cc1ccc(cc1)C(=O)Nc1cc(sc1C)c1scc(C)n1], the inhibition at 50 µM was -2.12% in data set [6], 0.63% in [7], -16.6% in data set [8] and 1.98% in data set [2]. For the same molecule, the half-inhibitory concentration (IC50) in [3] (setting [9]) and in data set [3] (setting [16]) was more than 10000 nM throughout. In addition, the inhibition at 20 µM in data set [1] (Homo sapiens, NFF) came out at 16.3 ± 20.4%. Moreover, the inhibition at 10 µM in data set [5] (setting [10]) stood at 39.3%; in [5] (setting [11]), 16.7%; in [5] (setting [12]) it was 28%; in data set [5] (setting [13]) it was 60%; in data set [5] (setting [14]) it was 52.2%; in [5] (setting [15]), 56.1%.
In the case of `CC(C)c1ccc(Nc2ncccc2S(=O)(=O)N2CCCC2)cc1` [SN00799289, CC(C)c1ccc(cc1)Nc1ncccc1S(=O)(=O)N1CCCC1], the inhibition at 50 µM in data set [6] is 4.74%; in [7], 14.4%; in data set [8], 3.06%; in data set [2], 1.89%. For the same molecule, the values for the IC50 in data set [3] (setting [9]) and in data set [3] (setting [16]) were more than 10000 nM and 3360 ± 1520 nM, respectively. The inhibition at 20 µM in [1] (Homo sapiens, NFF) was 11.4 ± 13.4%. Also, in data set [1], the “SI (48h Gd)” value is more than 5. The inhibition at 10 µM in [5] (setting [10]) worked out at 43.9%; in data set [5] (setting [11]) it was 10.1%; in [5] (setting [12]) it was 27%; in data set [5] (setting [13]), 73.3%; in [5] (setting [14]), 41.7%; in data set [5] (setting [15]), 57.5%.
Turning to `CCS(=O)(=O)CCn1c([N+](=O)[O-])cnc1C` [tinidazole], the clinical failure rates with Giardia infections was 40–70%.

Source of the values: paper PMC9775191, “A Subset Screen of the Compounds Australia Scaffold Library Identifies 7-Acylaminodibenzoxazepinones as Potent and Selective Hits for Anti-Giardia Drug Discovery” (Biomedicines, 2022).
